From US20230146455A1, “TREATMENT OF INFLAMMATORY DISEASES WITH PEPTIDES AND PHARMACEUTICAL COMPOSITIONS” (Yuyu Pharma, Inc., priority 2020, published 2023)
Values joined by “and” are separate entries in the source; they are usually repeats but may differ in a detail not shown here. Identical values can stand only once. Where a SMILES comes first, the peptide text is derived from it. [ ]: non-standard residue; d: D form. Hyp = O=C(O)[C@@H]1C[C@@H](O)CN1

System: Fas Ligand
Test: Example 9 Luminex, LPS hPBMCs: Fas Ligand
Format: cell-based, human
Conditions: for Fas Ligand Concentration / Fas Ligand conc/live cell / MFI, bead Fas Ligand: single replicates
Method: Treatment Human PBMCs were pretreated with YY-101, YDE-011 and YDE-043 or reference compound; Xiidra® at various concentration (ranging from 1 nM to 100 uM) for 2 h before stimulation. An equal volume of 0.5% DMSO was used as a vehicle control. Then, the cells were treated with LPS at 5 ug/ml. The supernatants from treated cells were harvested at 24 h and placed in a 96 well for Luminex cytokine & chemokine profiling using a Luminex 200 multiplex assay (Luminex; R&D system, USA).
The main study arm with triplicate wells per group in a 24-well plate: • 1. Blank • 2. PBMC: 0.5% DMSO • 3. PBMC+LPS (5 ug/ml) • 4. PBMC+YY-101 100 uM • 5. PBMC+YY-101 10 uM • 6. PBMC+YY-101 1 uM • 7. PBMC+YY-101 0.1 uM • 8. PBMC+YY-101 0.01 uM • 9. PBMC+LPS (5 ug/ml)+Xiidra®100 uM • 10. PBMC+LPS (5 ug/ml)+Xiidra® 10 uM • 11. PBMC+LPS (5 ug/ml)+Xiidra® 1 uM • 12. PBMC+LPS (5 ug/ml)+Xiidra®0.1 uM • 13. PBMC+LPS (5 ug/ml)+Xiidra®0.01 uM • 14. PBMC+LPS (5 ug/ml)+Xiidra®0.001 uM • 15. PBMC+LPS (5 ug/ml)+YY-101 100 uM • 16. PBMC+LPS (5 ug/ml)+YY-101 10 uM • 17. PBMC+LPS (5 ug/ml)+YY-101 1 uM • 18. PBMC+LPS (5 ug/ml)+YY-101 0.1 uM • 19. PBMC+LPS (5 ug/ml)+YY-101 0.01 uM • 20. PBMC+LPS (5 ug/ml)+YY-101 0.001 uM • 21. PBMC+LPS (5 ug/ml)+YDE-011 100 uM • 22. PBMC+LPS (5 ug/ml)+YDE-011 10 uM • 23. PBMC+LPS (5 ug/ml)+YDE-011 1 uM • 24. PBMC+LPS (5 ug/ml)+YDE-011 0.1 uM • 25. PBMC+LPS (5 ug/ml)+YDE-011 0.01 uM • 26. PBMC+LPS (5 ug/ml)+YDE-011 0.001 uM • 27. PBMC+LPS (5 ug/ml)+YDE-043 100 uM • 28. PBMC+LPS (5 ug/ml)+YDE-043 10 uM • 29. PBMC+LPS (5 ug/ml)+YDE-043 1 uM • 30. PBMC+LPS (5 ug/ml)+YDE-043 0.1 uM • 31. PBMC+LPS (5 ug/ml)+YDE-043 0.01 uM • 32. PBMC+LPS (5 ug/ml)+YDE-043 0.001 uM
Multiplex assay was used to measure 30 cytokines and chemokines. The 1:2, 1:10 and 1:200 diluted cell supernatant and serial dilution of the standard were dispensed into a 96 well plate at 50 ul/well. Then, the pre-mixed cocktail of antibody-coated magnetic beads was dispensed at 50 ul/well and incubated at room temperature for 2 h in a horizontal orbital microplate shaker at 800±500 rpm. The beads were washed using a magnetic device to prevent loss. The biotin-antibody was dispensed in 50 ul of each well and incubated at room temperature for 1 h in a shaker at 800±500 rpm. After washing, streptavidin-PE was added at 50 ul/well and incubated at room temperature for 30 min in a shaker under the same conditions. Finally, after washing, wash buffer (100 ul/well) was added to the plate and incubated in a shaker for 2 min. The Luminex™ 200 setting were set according to the manufacturer's protocol. The data was calculated with a standard five-parameter logistic nonlinear regression analysis of the data (xPonent software 4.2, USA). The levels of cytokine/chemokine are normalized to the live cell counts (1×10^5 cells/mL) and presented as concentrations per mL (pg/mL or ng/mL).

[1] = PBMC + LPS(5 ug/ml) + test article 0.001 uM
[2] = PBMC + LPS(5 ug/ml) + test article 0.01 uM
[3] = PBMC + LPS(5 ug/ml) + test article 0.1 uM
[4] = PBMC + LPS(5 ug/ml) + test article 1 uM
[5] = PBMC + LPS(5 ug/ml) + test article 10 uM
[6] = PBMC + LPS(5 ug/ml) + test article 100 uM

SMILES: CC(C)C[C@H](NC(=O)CNC(=O)[C@H](CC(C)C)NC(=O)[C@H](CCC(N)=O)NC(=O)CNC(=O)[C@@H]1C[C@@H](O)CN1)C(=O)N[C@@H](C)C(=O)NCC(=O)N1CCC[C@H]1C(=O)N[C@@H](CCCCN)C(=O)O [YDE-011] (H-[Hyp]GQLGLAGPK-OH)
- Fas Ligand Concentration, Mean [1]: 16.8 pg/mL
- Fas Ligand conc/live cell, Mean [1]: 3.2 pg/10^5
- MFI, bead Fas Ligand, Mean [1]: 22.7
- Fas Ligand Concentration [1]: 15.7 pg/mL and 18.4 pg/mL and 16.4 pg/mL
- Fas Ligand conc/live cell [1]: 3.5 pg/10^5 and 3.2 pg/10^5 and 2.8 pg/10^5
- MFI, bead Fas Ligand [1]: 21.0 and 25.0 and 22.0
- Fas Ligand Concentration, Mean [2]: 15.5 pg/mL
- Fas Ligand conc/live cell, Mean [2]: 2.7 pg/10^5
- MFI, bead Fas Ligand, Mean [2]: 20.7
- Fas Ligand Concentration [2]: 17.1 pg/mL and 13.7 pg/mL and 15.7 pg/mL
- Fas Ligand conc/live cell [2]: 2.7 pg/10^5 and 2.2 pg/10^5 and 3.1 pg/10^5
- MFI, bead Fas Ligand [2]: 23.0 and 18.0 and 21.0
- Fas Ligand Concentration, Mean [3]: 17.3 pg/mL
- Fas Ligand conc/live cell, Mean [3]: 3.0 pg/10^5
- MFI, bead Fas Ligand, Mean [3]: 23.3
- Fas Ligand Concentration [3]: 19.1 pg/mL and 17.7 pg/mL and 15.0 pg/mL
- Fas Ligand conc/live cell [3]: 2.9 pg/10^5 and 3.5 pg/10^5 and 2.6 pg/10^5
- MFI, bead Fas Ligand [3]: 26.0 and 24.0 and 20.0
- Fas Ligand Concentration, Mean [4]: 15.9 pg/mL
- Fas Ligand conc/live cell, Mean [4]: 3.2 pg/10^5
- MFI, bead Fas Ligand, Mean [4]: 21.3
- Fas Ligand Concentration [4]: 17.4 pg/mL and 15.4 pg/mL and 15.0 pg/mL
- Fas Ligand conc/live cell [4]: 3.2 pg/10^5 (2×) and 3.1 pg/10^5
- MFI, bead Fas Ligand [4]: 23.5 and 20.5 and 20.0
- Fas Ligand Concentration, Mean [5]: 17.3 pg/mL
- Fas Ligand conc/live cell, Mean [5]: 3.3 pg/10^5
- MFI, bead Fas Ligand, Mean [5]: 23.3
- Fas Ligand Concentration [5]: 19.7 pg/mL and 17.7 pg/mL and 14.4 pg/mL
- Fas Ligand conc/live cell [5]: 3.7 pg/10^5 and 3.1 pg/10^5 (2×)
- MFI, bead Fas Ligand [5]: 27.0 and 24.0 and 19.0
- Fas Ligand Concentration, Mean [6]: 13.3 pg/mL
- Fas Ligand conc/live cell, Mean [6]: 2.2 pg/10^5
- MFI, bead Fas Ligand, Mean [6]: 17.3
- Fas Ligand Concentration [6]: 11.7 pg/mL and 13.1 pg/mL and 15.0 pg/mL
- Fas Ligand conc/live cell [6]: 1.9 pg/10^5 and 2.1 pg/10^5 and 2.5 pg/10^5
- MFI, bead Fas Ligand [6]: 15.0 and 17.0 and 20.0
